The record followed here is ChEMBL document CHEMBL1141033, “First-in-class pan caspase inhibitor developed for the treatment of liver disease” (J Med Chem, 2005).

One test has as its system Jurkat. In words: Inhibitory concentration against JFas cells. The test is classed as functional, cell-based. The following applies: Homo sapiens.
The next test has as its target Caspase-8 (Homo sapiens) (UniProt Q14790). In words: Inhibitory activity against Caspase-8.
The subject of the next test is THP-1. As to the kind of experiment: Inhibitory concentration against THP-1 cells. The following applies: Homo sapiens. The test is classed as functional, cell-based.
For test [1], the system named is Rattus norvegicus. As to the kind of experiment: Effective dose required for pancaspase inhibition in a-Fas liver upon i.p. administration; range = 0.03-0.05. It counts as functional. The following applies: ip.
The next test deals with T1, Caspase-1 (Mus musculus) (UniProt P29452).
T1 sequence (whole entry): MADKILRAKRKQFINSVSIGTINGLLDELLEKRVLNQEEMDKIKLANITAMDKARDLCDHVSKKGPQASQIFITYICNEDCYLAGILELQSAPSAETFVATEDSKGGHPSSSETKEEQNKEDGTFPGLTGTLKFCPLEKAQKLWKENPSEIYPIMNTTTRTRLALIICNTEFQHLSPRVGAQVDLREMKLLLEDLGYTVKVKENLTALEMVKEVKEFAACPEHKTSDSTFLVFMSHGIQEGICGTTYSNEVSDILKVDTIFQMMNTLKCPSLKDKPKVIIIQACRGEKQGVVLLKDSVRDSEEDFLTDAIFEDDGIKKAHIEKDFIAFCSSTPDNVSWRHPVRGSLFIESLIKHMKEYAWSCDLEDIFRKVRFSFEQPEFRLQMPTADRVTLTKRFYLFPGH
As to the kind of experiment: Inhibitory activity against murine Caspase-1.

Another test addresses T2, Caspase-3 (Homo sapiens) (UniProt P42574).
T2 sequence (whole entry): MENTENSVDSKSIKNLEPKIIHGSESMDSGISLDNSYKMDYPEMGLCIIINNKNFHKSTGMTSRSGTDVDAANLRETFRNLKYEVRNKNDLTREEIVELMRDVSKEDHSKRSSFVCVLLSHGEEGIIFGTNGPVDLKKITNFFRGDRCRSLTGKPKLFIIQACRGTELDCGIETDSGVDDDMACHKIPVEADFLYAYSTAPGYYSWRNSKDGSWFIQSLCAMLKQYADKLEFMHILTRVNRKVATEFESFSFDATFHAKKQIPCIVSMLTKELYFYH
As to the kind of experiment: Inhibitory activity against Caspase-3.

The target of a further test is T3, Caspase-6 (Homo sapiens) (UniProt P55212).
T3 sequence (whole entry): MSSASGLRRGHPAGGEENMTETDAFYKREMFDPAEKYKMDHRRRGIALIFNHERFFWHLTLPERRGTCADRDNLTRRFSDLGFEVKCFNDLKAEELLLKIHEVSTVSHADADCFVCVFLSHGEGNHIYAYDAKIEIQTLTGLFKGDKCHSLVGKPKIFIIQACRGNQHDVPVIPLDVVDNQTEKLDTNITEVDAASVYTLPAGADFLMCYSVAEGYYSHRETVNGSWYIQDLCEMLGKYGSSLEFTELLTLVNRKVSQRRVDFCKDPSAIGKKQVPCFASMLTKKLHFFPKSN
As to the kind of experiment: Inhibitory activity against Caspase-6.

Another test relates to Mus musculus. In words: Effective dose required for pancaspase inhibition in a-Fas liver upon i.p. administration; range = 0.02-0.16. To be noted: ip.
In test [2] the test system is Rattus norvegicus. As to the kind of experiment: Effective dose required for pancaspase inhibition in a-Fas liver after an i.p. administration. The test is classed as functional. To be noted: ip.

pIC50: −log10 of the molar value.

Caspase-8 (Homo sapiens), sequence (Q14790 217-374 limits assumed): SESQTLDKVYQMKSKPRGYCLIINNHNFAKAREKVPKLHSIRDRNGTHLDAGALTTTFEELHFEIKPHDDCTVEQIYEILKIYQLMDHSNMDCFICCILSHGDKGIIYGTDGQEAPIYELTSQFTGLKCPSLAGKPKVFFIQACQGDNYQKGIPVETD
Caspase-8 (Homo sapiens), sequence (Q14790 385-479 limits assumed): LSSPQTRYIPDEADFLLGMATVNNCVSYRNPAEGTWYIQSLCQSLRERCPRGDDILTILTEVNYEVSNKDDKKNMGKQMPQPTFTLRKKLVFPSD

For `C[C@H](NC(=O)C(=O)Nc1ccccc1Cl)C(=O)N[C@@H](CC(=O)O)C(=O)COP(=O)(c1ccccc1)c1ccccc1`, the pIC50 with Jurkat was 7.17; with THP-1, 5.98. In addition, the k3/Ki at Caspase-8 (Homo sapiens) worked out at 1.41e+06 M⁻¹ s⁻¹; at Caspase-1 (Mus musculus), 3.96e+06 M⁻¹ s⁻¹; at Caspase-3 (Homo sapiens), 211000 M⁻¹ s⁻¹; at Caspase-6 (Homo sapiens) it was 37100 M⁻¹ s⁻¹. In addition, the ED50 in the test on Rattus norvegicus [1] came to 0.04 mg/kg.

Take `C[C@H](NC(=O)C(=O)Nc1ccccc1Cl)C(=O)N[C@@H](CC(=O)O)C(=O)COc1c(F)c(F)cc(F)c1F`: the pIC50 in the test with Jurkat was 7.19; with THP-1, 6.27. For the same compound, the k3/Ki is 228000 M⁻¹ s⁻¹ at Caspase-8 (Homo sapiens), 1.34e+07 M⁻¹ s⁻¹ on Caspase-1 (Mus musculus), 219000 M⁻¹ s⁻¹ at Caspase-3 (Homo sapiens) and 26000 M⁻¹ s⁻¹ on Caspase-6 (Homo sapiens). For the same compound, in the test on Mus musculus, the ED50 was 0.05 mg/kg.

Turning to `C[C@H](NC(=O)C(=O)Nc1ccccc1-c1ccccc1)C(=O)N[C@@H](CC(=O)O)C(=O)COP(=O)(c1ccccc1)c1ccccc1`, it took a dose of 0.44 mg/kg to reach the 50% effect level with Rattus norvegicus [2] (ED50). The figures for the pIC50 in the test on Jurkat and with THP-1 were 5.40 and 5.39, respectively. For the same compound, the k3/Ki was determined as 1.57e+06 M⁻¹ s⁻¹ on Caspase-8 (Homo sapiens), 5e+06 M⁻¹ s⁻¹ on Caspase-1 (Mus musculus), 28400 M⁻¹ s⁻¹ at Caspase-3 (Homo sapiens) and 22700 M⁻¹ s⁻¹ at Caspase-6 (Homo sapiens).
